{"source": "patent US20240150691A1", "about": "“BILE DUCT CHIP AND USE THEREOF” (Kyoto University, priority 2021, published 2024)", "key": {"[1]": {"assay": "Drug absorption in microfluidic device without PHH (LC-MS/MS)", "assay_type": "physicochemical", "conditions": "for Drug absorption rate: Microfluidic device/Polystyrene plate, without PHH", "experimental": "(§1) A culture medium containing MDZ, DIC, PHE, BUF, or MPHT was added to a microfluidic device or a polystyrene plate. Subsequently, 1, 2, and 4 hours after the addition of the drugs, the amounts of these drugs were quantified with LC-MS/MS.\nas §1, with “APAP (a CYP1A2 metabolite), 1OH-MDZ (a CYP3A4 metabolite), 4OH-DIC (a CYP2C9 metabolite), 4OH-MPHT (a CYP2C19 metabolite),” for “MDZ, DIC, PHE, BUF,”, “1OH-BUF (a CYP2D6 metabolite)” for “MPHT”\nSubsequently, it was examined whether the absorption of the drugs and metabolites could be predicted by the relative physicochemical characteristics between the microfluidic device and the polystyrene plate. The drug absorption rate between the microfluidic device and the polystyrene plate was calculated. Subsequently, a correlation coefficient R^2 value between the drug absorption rate and the physicochemical characteristics (DiffCoef, M Log P, S+Log P, S+log D, MWt, and tPSA) of the drugs was calculated."}, "[2]": {"target": "T1, CYP2D6 (Homo sapiens, UniProt P10635)", "T1 construct": "endogenous in cells; host or cells: primary human hepatocytes (PHH)", "T1 sequence (P10635 whole entry)": "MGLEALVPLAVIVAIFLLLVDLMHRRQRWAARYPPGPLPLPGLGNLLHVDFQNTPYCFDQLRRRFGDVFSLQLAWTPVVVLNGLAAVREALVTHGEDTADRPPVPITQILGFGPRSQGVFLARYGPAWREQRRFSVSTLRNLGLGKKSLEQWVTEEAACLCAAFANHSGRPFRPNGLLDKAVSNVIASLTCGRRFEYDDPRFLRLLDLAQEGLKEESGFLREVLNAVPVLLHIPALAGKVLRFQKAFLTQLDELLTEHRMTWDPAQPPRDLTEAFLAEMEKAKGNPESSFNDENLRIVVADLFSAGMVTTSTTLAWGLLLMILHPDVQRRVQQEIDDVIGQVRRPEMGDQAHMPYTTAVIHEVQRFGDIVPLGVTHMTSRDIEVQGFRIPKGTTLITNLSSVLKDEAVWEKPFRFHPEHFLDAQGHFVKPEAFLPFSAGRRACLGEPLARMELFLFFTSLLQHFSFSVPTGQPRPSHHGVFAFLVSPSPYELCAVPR", "assay": "Measurement of CYP activity using CYP substrates in PHH (BUF to 1OH-BUF)", "assay_type": "in vitro ADME", "conditions": "10 μM BUF", "experimental": "(§2) The LC-MS/MS analysis was carried out to measure the activity of CYP. Prior to a CYP substrate treatment, PHH was cultured in DMEM containing 10 mM HEPES for 30 minutes. Subsequently, the PHH was cultured in a culture medium containing 5 μM MDZ (the metabolite thereof is 1OH-MDZ), 50 μM MPHT (the metabolite thereof is 4OH-MPHT), 5 μM DIC (the metabolite thereof is 4OH-DIC), 10 μM BUF (the metabolite thereof is 1OH-BUF), or 50 μM PHE (the metabolite thereof is APAP). The supernatant was recovered 1, 2, and 4 hours after the treatment with the substrate. At the time of recovering the supernatant, an equal amount of a culture medium containing the substrate was added.\n(§3) The recovered supernatant was mixed with acetonitrile (FUJIFILM Wako Pure Chemical Corporation) containing an equal volume of 5 μM propranolol (internal standard). The specimen was filtered through a Cosmonice Filter W (Nacalai Tesque, Inc.) having a pore size of 0.45 μm, the supernatant was subsequently analyzed by LC-MS/MS, and the concentration of the metabolite was measured based on the standard curve. […]\n(§4) Subsequently, the drug metabolic activities of the PHH cultured in the PDMS device and the PS plate were compared. […] Subsequently, after 1, 2, and 4 hours, the amounts of the metabolites (OH-MDZ, 4OH-DIC, APAP, 1OH-BUF, and 4OH-MPHT) generated in the culture medium were measured by LC-MS/MS."}, "[3]": {"target": "T2, CYP2C9 (Homo sapiens, UniProt P11712)", "T2 construct": "endogenous in cells; host or cells: primary human hepatocytes (PHH)", "T2 sequence (P11712 whole entry)": "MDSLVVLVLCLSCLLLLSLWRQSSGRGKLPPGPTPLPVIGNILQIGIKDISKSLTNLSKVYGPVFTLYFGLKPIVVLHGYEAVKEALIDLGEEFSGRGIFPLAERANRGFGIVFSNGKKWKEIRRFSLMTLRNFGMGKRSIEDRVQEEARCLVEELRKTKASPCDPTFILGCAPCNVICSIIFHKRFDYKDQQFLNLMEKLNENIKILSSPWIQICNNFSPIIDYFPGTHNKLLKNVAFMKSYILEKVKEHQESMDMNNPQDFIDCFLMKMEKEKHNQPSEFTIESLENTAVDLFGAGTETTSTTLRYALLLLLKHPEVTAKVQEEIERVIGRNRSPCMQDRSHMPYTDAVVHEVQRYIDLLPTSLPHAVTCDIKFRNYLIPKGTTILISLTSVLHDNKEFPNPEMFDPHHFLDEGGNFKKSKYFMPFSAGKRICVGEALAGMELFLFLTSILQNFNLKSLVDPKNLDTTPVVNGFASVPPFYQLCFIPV", "assay": "Measurement of CYP activity using CYP substrates in PHH (DIC to 4OH-DIC)", "assay_type": "in vitro ADME", "conditions": "5 μM DIC", "experimental": "as §2, §3, §4"}, "[4]": {"target": "T3, CYP2C19 (Homo sapiens, UniProt P33261)", "T3 construct": "endogenous in cells; host or cells: primary human hepatocytes (PHH)", "T3 sequence (P33261 whole entry)": "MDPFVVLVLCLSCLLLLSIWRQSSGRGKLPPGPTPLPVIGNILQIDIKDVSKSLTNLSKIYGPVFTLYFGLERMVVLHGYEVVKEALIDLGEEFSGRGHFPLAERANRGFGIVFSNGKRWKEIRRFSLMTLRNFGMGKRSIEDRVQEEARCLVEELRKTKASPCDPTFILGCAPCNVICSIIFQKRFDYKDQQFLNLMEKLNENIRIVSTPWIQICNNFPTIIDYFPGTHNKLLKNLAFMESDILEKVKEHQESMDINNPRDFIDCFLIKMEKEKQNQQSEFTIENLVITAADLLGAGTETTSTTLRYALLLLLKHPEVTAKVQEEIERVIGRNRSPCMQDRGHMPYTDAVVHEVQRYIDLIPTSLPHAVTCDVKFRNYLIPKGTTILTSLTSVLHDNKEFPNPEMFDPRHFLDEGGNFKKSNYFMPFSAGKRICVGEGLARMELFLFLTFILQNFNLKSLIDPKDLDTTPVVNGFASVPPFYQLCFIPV", "assay": "Measurement of CYP activity using CYP substrates in PHH (MPHT to 4OH-MPHT)", "assay_type": "in vitro ADME", "conditions": "50 μM MPHT", "experimental": "as §2, §3, §4"}, "[5]": {"assay": "Acetaminophen-induced cytotoxicity, WST-8 assay", "assay_type": "cell-based, human", "conditions": "human, PHH cultured on the polystyrene plate", "experimental": "(§5) PHH was exposed to 10 mM APAP (FUJIFILM Wako Pure Chemical Corporation) for 4 days. Cell viability was measured according to a WST-8 assay. The WST-8 assay was carried out using a Cell Counting Kit-8 (Dojindo Molecular Technologies. Inc.) according to the instruction manual. The cell viability was calculated as a percentage with respect to cells not subjected to a drug treatment.\n(§6) The drug responsiveness of the PHH cultured in the microfluidic device and the polystyrene plate was evaluated. PHH was treated with acetaminophen (APAP), which is known to cause drug-induced liver damage at a high concentration, in order to investigate whether or not drug-induced liver damage can be evaluated in PHH cultured in a microfluidic device. PHH was seeded in a microfluidic device or a polystyrene plate and cultured for 24 hours. Subsequently, the PHH was exposed to 10 mM acetaminophen for 4 days. Subsequently, cell viability was measured according to a WST-8 assay.\n(§7) Subsequently, the hepatotoxicity of PHH due to acetaminophen was examined. The PHH cultured on the polystyrene plate was exposed to acetaminophen at various concentrations for 4 days. Subsequently, cell viability was measured according to a WST-8 assay. […] The data is indicated as average value±standard deviation (n=3)."}, "[6]": {"system": "PHH", "assay": "Acetaminophen-induced cytotoxicity, WST-8 assay", "assay_type": "cell-based, human", "conditions": "10 mM acetaminophen, 4 days", "experimental": "as §5, §6, §7"}, "[7]": {"system": "CYP1A2", "assay": "Measurement of CYP activity using CYP substrates in PHH (PHE to APAP)", "assay_type": "in vitro ADME, human", "conditions": "50 μM PHE", "experimental": "The supernatant was recovered 1, 2, and 4 hours after the treatment with the substrate."}}}
{"smiles": "CC(O)c1cccc2cc(C(O)CNC(C)(C)C)oc12", "note": "(centres unmarked) [1-hydroxybufuralol]", "values": [{"measurement": "Drug absorption rate", "setting": "[1]", "result": 0.9648}, {"measurement": "absorption in the microfluidic device", "setting": "[1]; PDMS device without PHH", "result": "not absorbed"}, {"measurement": "formation rate of metabolite, microfluidic device versus polystyrene plate", "setting": "[2]", "result": "similar"}]}
{"smiles": "O=C(O)Cc1ccccc1Nc1c(Cl)cc(O)cc1Cl", "note": "[4-hydroxy diclofenac, 4-hydroxydiclofenac]", "values": [{"measurement": "Drug absorption rate", "setting": "[1]", "result": 0.725}, {"measurement": "formation rate of metabolite, microfluidic device versus PS plate", "setting": "[3]", "result": "significantly lower"}]}
{"smiles": "CCC1(c2ccc(O)cc2)NC(=O)N(C)C1=O", "note": "(centres unmarked) [4-hydroxymephenytoin]", "values": [{"measurement": "Drug absorption rate", "setting": "[1]", "result": 0.8633}, {"measurement": "formation rate of metabolite, microfluidic device versus PS plate", "setting": "[4]", "result": "significantly lower"}]}
{"smiles": "CC(=O)Nc1ccc(O)cc1", "note": "[Acetaminophen, acetaminophen]", "values": [{"measurement": "Drug absorption rate", "setting": "[1]", "result": 0.8987}, {"measurement": "CC50 at 4 days", "setting": "[5]", "result": 9.4, "unit": "mM"}, {"measurement": "cell viability, microfluidic device versus polystyrene plate", "setting": "[6]", "result": "significantly lower"}, {"measurement": "formation rate of metabolite, microfluidic device versus polystyrene plate", "setting": "[7]", "result": "similar"}]}
